Assay results reported in patent US20220143179A1, “DRUG DELIVERY FOR COMBINATION OF EPIGENETIC MODULATION AND IMMUNE CHECKPOINT BLOCKADE” (NORTH CAROLINA STATE UNIVERSITY, priority 2019, published 2022).
Like-named read-outs stand apart in the source and are kept apart here.

Tested on: B16F10 melanoma cells
Assay: MTT assay, cytotoxicity of hypomethylating agents
Format: cell-based
Conditions: Mus musculus, read-out: IC50 against B16F10 melanoma cells
Procedure: First, MTT assays were conducted to compare the cytotoxicity among these agents and determine the appropriate concentration to induce the expression of TAAs.
B16F10 cells were cultured into 96-well plates at a density of 5×10^3 cells per well overnight. […] Finally, the rate of cell viability was calculated according to the absorbance at 560 nm by a plate reader (Power Wave XS, Bio-TEK, USA).

Row | SMILES | IC50 (B16-F10, 72 h) [µM] | IC50 (B16-F10, MTT, 72 h incubation) [µM]
1 | Nc1ncn([C@H]2C[C@H](O)[C@@H](CO)O2)c(=O)n1 [DAC, 5-Aza-2′-deoxycytidine] | 2.55 | –
2 | Nc1ncn([C@@H]2O[C@H](CO)[C@@H](O)[C@H]2O)c(=O)n1 [AC, 5-Azacytidine] | – | 49
3 | Nc1nc(=O)n([C@H]2C[C@H](O)[C@@H](CO)O2)cc1F [5-F, 5-Fluoro-2′-deoxycytidine] | – | 1.05
4 | O=c1ncccn1[C@@H]1O[C@H](CO)[C@@H](O)[C@H]1O [Zeb, Zebularine] | – | 69.2
